In ChEMBL document CHEMBL6078666, “Discovery of Novel Coumarin Pleuromutilin Derivatives as Potent Anti-MRSA Agents” (J Med Chem, 2024):
In brackets after ≈: the same amount, converted by molar mass.

Legend:
Assay type in all cases: functional
[1] = system: Staphylococcus aureus; experiment: Antibacterial activity against methicillin-resistant Staphylococcus aureus clinical isolate 202313160 assessed as bacterial growth inhibition measured after 20 hrs by broth dilution method
[2] = system: Enterococcus faecium; experiment: Antibacterial activity against vancomycin-resistant Enterococcus faecium ATCC 700221 assessed as bacterial growth inhibition measured after 20 hrs by broth dilution method
[3] = system: Staphylococcus aureus; experiment: Ratio of MBC to MIC against methicillin-resistant Staphylococcus aureus clinical isolate 202405157
[4] = system: Enterococcus faecium; experiment: Ratio of MBC to MIC against vancomycin-resistant Enterococcus faecium ATCC 700221
[5] = system: Staphylococcus aureus; experiment: Ratio of MBC to MIC against Staphylococcus aureus ATCC 43300
[6] = system: Enterococcus faecium; experiment: Antibacterial activity against vancomycin-resistant Enterococcus faecium clinical isolate 202308456 assessed as bacterial growth inhibition measured after 20 hrs by broth dilution method
[7] = system: Staphylococcus aureus; experiment: Antibacterial activity against methicillin-resistant Staphylococcus aureus clinical isolate 202311772 assessed as bacterial growth inhibition measured after 20 hrs by broth dilution method
[8] = system: Staphylococcus epidermidis; experiment: Antibacterial activity against methicillin-resistant Staphylococcus epidermidis clinical isolate 202409454 assessed as bacterial growth inhibition measured after 20 hrs by broth dilution method
[9] = system: Streptococcus pneumoniae; experiment: Antibacterial activity against penicillin-resistant Streptococcus pneumoniae ATCC 51916 assessed as bacterial growth inhibition measured after 20 hrs by broth dilution method
[10] = system: Staphylococcus epidermidis; experiment: Ratio of MBC to MIC against Staphylococcus epidermidis ATCC 51625
[11] = system: Staphylococcus epidermidis; experiment: Antibacterial activity against methicillin-resistant Staphylococcus epidermidis clinical isolate 202409139 assessed as bacterial growth inhibition measured after 20 hrs by broth dilution method
[12] = system: Streptococcus pneumoniae; experiment: Ratio of MBC to MIC against penicillin-resistant Streptococcus pneumoniae ATCC 51916
[13] = system: Staphylococcus aureus; experiment: Antibacterial activity against methicillin-resistant Staphylococcus aureus ATCC 33591 assessed as bacterial growth inhibition measured after 20 hrs by broth dilution method
[14] = system: Staphylococcus aureus; experiment: Antibacterial activity against methicillin-resistant Staphylococcus aureus ATCC 43300 assessed as bacterial growth inhibition measured after 20 hrs by broth dilution method
[15] = system: Streptococcus pneumoniae; experiment: Antibacterial activity against penicillin-intermediate Streptococcus pneumoniae ATCC 49619 assessed as bacterial growth inhibition measured after 20 hrs by broth dilution method
[16] = system: Enterococcus faecium; experiment: Ratio of MBC to MIC against vancomycin-resistant Enterococcus faecium ATCC 51559
[17] = system: Enterococcus faecium; experiment: Antibacterial activity against vancomycin-resistant Enterococcus faecium ATCC 51559 assessed as bacterial growth inhibition measured after 20 hrs by broth dilution method
[18] = system: Staphylococcus epidermidis; experiment: Ratio of MBC to MIC against methicillin-resistant Staphylococcus epidermidis clinical isolate 202409454
[19] = system: Staphylococcus aureus; experiment: Antibacterial activity against methicillin-resistant Staphylococcus aureus clinical isolate 202405157 assessed as bacterial growth inhibition measured after 20 hrs by broth dilution method
[20] = system: Streptococcus pneumoniae; experiment: Ratio of MBC to MIC against penicillin-intermediate Streptococcus pneumoniae ATCC 49619
[21] = system: Staphylococcus aureus; experiment: Ratio of MBC to MIC against methicillin-resistant Staphylococcus aureus clinical isolate 202311772
[22] = system: Enterococcus faecium; experiment: Ratio of MBC to MIC against vancomycin-resistant Enterococcus faecium clinical isolate 202308456
[23] = system: Staphylococcus epidermidis; experiment: Antibacterial activity against Staphylococcus epidermidis ATCC 51625 assessed as bacterial growth inhibition measured after 20 hrs by broth dilution method
[24] = system: Staphylococcus aureus; experiment: Ratio of MBC to MIC against methicillin-resistant Staphylococcus aureus clinical isolate 202313160
[25] = system: Staphylococcus aureus; experiment: Ratio of MBC to MIC against methicillin-resistant Staphylococcus aureus ATCC 33591
[26] = system: Staphylococcus epidermidis; experiment: Ratio of MBC to MIC against methicillin-resistant Staphylococcus epidermidis clinical isolate 202409139

Structure (SMILES)	MIC [1]	MIC [2]	Ratio [4]	Ratio [5]	MIC [6]	MIC [7]	MIC [8]	MIC [9]	Ratio [10]	MIC [11]	MIC [13]	MIC [14]	MIC [15]	Ratio [16]	MIC [17]	Ratio [18]	MIC [19]	Ratio [20]	Ratio [22]	MIC [23]	other results
C=C[C@]1(C)C[C@@H](OC(=O)CSc2cc(=O)oc3ccccc23)[C@]2(C)[C@H](C)CC[C@]3(CCC(=O)[C@H]32)[C@@H](C)[C@@H]1O	0.125 µg/mL (≈ 0.232 µM)	0.031 µg/mL (≈ 0.0575 µM)	1	>4	0.125 µg/mL (≈ 0.232 µM)	0.031 µg/mL (≈ 0.0575 µM)	0.25 µg/mL (≈ 0.464 µM)	0.125 µg/mL (≈ 0.232 µM)	>4	0.125 µg/mL (≈ 0.232 µM)	0.031 µg/mL (≈ 0.0575 µM)	0.063 µg/mL (≈ 0.117 µM)	0.031 µg/mL (≈ 0.0575 µM)	4	0.125 µg/mL (≈ 0.232 µM)	2	0.125 µg/mL (≈ 0.232 µM)	>4	>4	0.016 µg/mL (≈ 0.0297 µM)	Ratio [3]: 2; Ratio [12]: 2; Ratio [21]: 2
C=C[C@]1(C)C[C@@H](OC(=O)CSCCOc2cc(=O)oc3cc(OC)ccc23)[C@]2(C)[C@H](C)CC[C@]3(CCC(=O)[C@H]32)[C@@H](C)[C@@H]1O	0.125 µg/mL (≈ 0.204 µM)	0.063 µg/mL (≈ 0.103 µM)	>4	>4	0.125 µg/mL (≈ 0.204 µM)	0.125 µg/mL (≈ 0.204 µM)	0.25 µg/mL (≈ 0.408 µM)	0.063 µg/mL (≈ 0.103 µM)	>4	0.125 µg/mL (≈ 0.204 µM)	0.063 µg/mL (≈ 0.103 µM)	0.125 µg/mL (≈ 0.204 µM)	0.125 µg/mL (≈ 0.204 µM)	2	0.125 µg/mL (≈ 0.204 µM)	>1	0.125 µg/mL (≈ 0.204 µM)	>4	>4	0.031 µg/mL (≈ 0.0506 µM)	Ratio [3]: 4; Ratio [12]: 2
C=C[C@]1(C)C[C@@H](OC(=O)CSCCOc2cc(=O)oc3ccccc23)[C@]2(C)[C@H](C)CC[C@]3(CCC(=O)[C@H]32)[C@@H](C)[C@@H]1O	0.125 µg/mL (≈ 0.214 µM)	0.063 µg/mL (≈ 0.108 µM)	>4	>4	0.125 µg/mL (≈ 0.214 µM)	0.125 µg/mL (≈ 0.214 µM)	0.063 µg/mL (≈ 0.108 µM)	0.25 µg/mL (≈ 0.429 µM)	>4	0.125 µg/mL (≈ 0.214 µM)	0.063 µg/mL (≈ 0.108 µM)	0.25 µg/mL (≈ 0.429 µM)	0.125 µg/mL (≈ 0.214 µM)	2	0.25 µg/mL (≈ 0.429 µM)	2	0.25 µg/mL (≈ 0.429 µM)	>4	2	0.031 µg/mL (≈ 0.0532 µM)	Ratio [24]: 2; Ratio [21]: 1
C=C[C@]1(C)C[C@@H](OC(=O)CSc2cc(=O)oc3cc(Cl)ccc23)[C@]2(C)[C@H](C)CC[C@]3(CCC(=O)[C@H]32)[C@@H](C)[C@@H]1O	0.125 µg/mL (≈ 0.218 µM)	0.031 µg/mL (≈ 0.0541 µM)	2	4	0.063 µg/mL (≈ 0.11 µM)	0.031 µg/mL (≈ 0.0541 µM)	0.125 µg/mL (≈ 0.218 µM)	0.125 µg/mL (≈ 0.218 µM)	>4	0.125 µg/mL (≈ 0.218 µM)	0.031 µg/mL (≈ 0.0541 µM)	0.063 µg/mL (≈ 0.11 µM)	0.063 µg/mL (≈ 0.11 µM)	2	0.063 µg/mL (≈ 0.11 µM)	2	0.25 µg/mL (≈ 0.436 µM)	4	>4	0.031 µg/mL (≈ 0.0541 µM)	Ratio [25]: >4; Ratio [3]: >4; Ratio [24]: >4; Ratio [21]: >4
C=C[C@]1(C)C[C@@H](OC(=O)CSc2cc(=O)oc3ccc([N+](=O)[O-])cc23)[C@]2(C)[C@H](C)CC[C@]3(CCC(=O)[C@H]32)[C@@H](C)[C@@H]1O	0.063 µg/mL (≈ 0.108 µM)	0.031 µg/mL (≈ 0.0531 µM)	2	>4	0.125 µg/mL (≈ 0.214 µM)	0.031 µg/mL (≈ 0.0531 µM)	0.125 µg/mL (≈ 0.214 µM)	0.25 µg/mL (≈ 0.428 µM)	>4	0.063 µg/mL (≈ 0.108 µM)	0.031 µg/mL (≈ 0.0531 µM)	0.063 µg/mL (≈ 0.108 µM)	0.125 µg/mL (≈ 0.214 µM)	2	0.063 µg/mL (≈ 0.108 µM)	2	0.063 µg/mL (≈ 0.108 µM)	>4	1	0.031 µg/mL (≈ 0.0531 µM)	Ratio [24]: 4
C=C[C@]1(C)C[C@@H](OC(=O)CSc2cc(=O)oc3cc(Br)ccc23)[C@]2(C)[C@H](C)CC[C@]3(CCC(=O)[C@H]32)[C@@H](C)[C@@H]1O	0.125 µg/mL (≈ 0.202 µM)	0.031 µg/mL (≈ 0.0502 µM)	2	>4	0.063 µg/mL (≈ 0.102 µM)	0.031 µg/mL (≈ 0.0502 µM)	0.125 µg/mL (≈ 0.202 µM)	0.125 µg/mL (≈ 0.202 µM)	4	0.125 µg/mL (≈ 0.202 µM)	0.031 µg/mL (≈ 0.0502 µM)	0.063 µg/mL (≈ 0.102 µM)	0.063 µg/mL (≈ 0.102 µM)	1	0.063 µg/mL (≈ 0.102 µM)	–	0.063 µg/mL (≈ 0.102 µM)	>4	2	0.031 µg/mL (≈ 0.0502 µM)	Ratio [26]: >4; Ratio [3]: 2; Ratio [24]: 4; Ratio [21]: 1
C=C[C@]1(C)C[C@@H](OC(=O)CO)[C@]2(C)[C@H](C)CC[C@]3(CCC(=O)[C@H]32)[C@@H](C)[C@@H]1O [PLEUROMULIN]	0.5 µg/mL (≈ 1.32 µM)	0.5 µg/mL (≈ 1.32 µM)	>4	2	0.5 µg/mL (≈ 1.32 µM)	0.25 µg/mL (≈ 0.66 µM)	0.25 µg/mL (≈ 0.66 µM)	4 µg/mL (≈ 10.6 µM)	>4	0.25 µg/mL (≈ 0.66 µM)	0.5 µg/mL (≈ 1.32 µM)	1 µg/mL (≈ 2.64 µM)	2 µg/mL (≈ 5.28 µM)	2	2 µg/mL (≈ 5.28 µM)	–	0.5 µg/mL (≈ 1.32 µM)	2	2	1 µg/mL (≈ 2.64 µM)	Ratio [25]: 4; Ratio [26]: 4; Ratio [12]: 4; Ratio [24]: >4; Ratio [21]: >4
C=C[C@]1(C)C[C@@H](OC(=O)CSc2cc(=O)oc3ccc(F)cc23)[C@]2(C)[C@H](C)CC[C@]3(CCC(=O)[C@H]32)[C@@H](C)[C@@H]1O	0.063 µg/mL (≈ 0.113 µM)	0.031 µg/mL (≈ 0.0557 µM)	4	4	0.031 µg/mL (≈ 0.0557 µM)	0.031 µg/mL (≈ 0.0557 µM)	0.125 µg/mL (≈ 0.225 µM)	0.125 µg/mL (≈ 0.225 µM)	4	0.063 µg/mL (≈ 0.113 µM)	0.031 µg/mL (≈ 0.0557 µM)	0.063 µg/mL (≈ 0.113 µM)	0.063 µg/mL (≈ 0.113 µM)	2	0.063 µg/mL (≈ 0.113 µM)	>4	0.063 µg/mL (≈ 0.113 µM)	>4	>4	0.031 µg/mL (≈ 0.0557 µM)	Ratio [25]: >4; Ratio [26]: 2; Ratio [3]: >4; Ratio [21]: >4
